Source: PubChem BioAssay AID1633 (PCMD, 2009)

Target: Procathepsin L (Homo sapiens) (UniProt P07711)
Experiment: CTSL inhibition IC50, probe compound – biochemical, dose response (AID 1633)
Conditions: purified cathepsin L, fluorogenic substrate, enzyme inhibition

Procathepsin L (Homo sapiens), sequence (P07711 114-288 limits assumed): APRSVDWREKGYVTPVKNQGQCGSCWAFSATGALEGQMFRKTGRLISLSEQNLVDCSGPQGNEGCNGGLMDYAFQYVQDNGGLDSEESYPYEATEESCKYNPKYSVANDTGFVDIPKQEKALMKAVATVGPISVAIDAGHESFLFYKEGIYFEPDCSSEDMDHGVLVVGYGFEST
Procathepsin L (Homo sapiens), sequence (P07711 292-333 limits assumed): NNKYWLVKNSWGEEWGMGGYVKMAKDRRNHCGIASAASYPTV

For CCc1ccccc1NC(=O)CSC(=O)NNC(=O)[C@H](Cc1c[nH]c2ccccc12)NC(=O)OC(C)(C)C, the IC50 was 0.201 µM.
